Measured values: PubChem BioAssay AID330 (DTP/NCI, 2004)
Several values for one entry are separate records, joined by “and”; a condition that tells them apart may be missing. Equal entries are not always repeated. Inconclusive results and toxic doses are left out.

Test system: P388 leukemia ip, CD2F1 mice, survival T/C
Experiment: NCI In Vivo Anticancer Drug Screen. Data for tumor model P388 Leukemia (intraperitoneal) in CD2F1 (CDF1) mice
Details: endpoint: median survival time, higher = longer survival
In short: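 Mice carrying the transplanted tumor received test compound or vehicle. Survival was recorded in each group, and the value is the treated-group measurement divided by that of the vehicle-treated control group.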

[1] = dose: 50.0 mg/kg/injection, schedule: Q01DX009 (ip), vehicle: Klucel (hydroxypropylcellulose) (HPC)
[2] = dose: 100.0 mg/kg/injection, schedule: Q01DX009 (ip), vehicle: Klucel (hydroxypropylcellulose) (HPC)
[3] = dose: 200.0 mg/kg/injection, schedule: Q01DX009 (ip), vehicle: Klucel (hydroxypropylcellulose) (HPC)
[4] = dose: 60.0 mg/kg/injection, schedule: Q01DX005 (ip), vehicle: saline with Tween-80
[5] = dose: 120.0 mg/kg/injection, schedule: Q01DX005 (ip), vehicle: saline with Tween-80
[6] = dose: 25.0 mg/kg/injection, schedule: Q01DX009 (ip), vehicle: saline with Tween-80
[7] = dose: 50.0 mg/kg/injection, schedule: Q01DX009 (ip), vehicle: saline with Tween-80
[8] = dose: 100.0 mg/kg/injection, schedule: Q01DX009 (ip), vehicle: saline with Tween-80

What does the source list for CC(=O)Nc1cc2cc(NC(=O)C(Cl)(Cl)Cl)ccc2oc1=O?
T/C (dose: 60.0 mg/kg/injection, schedule: Q01DX005 (ip), vehicle: Klucel (hydroxypropylcellulose) (HPC)): 98 % of control; T/C (dose: 120.0 mg/kg/injection, schedule: Q01DX005 (ip), vehicle: Klucel (hydroxypropylcellulose) (HPC)): 100 % of control; T/C (dose: 240.0 mg/kg/injection, schedule: Q01DX005 (ip), vehicle: Klucel (hydroxypropylcellulose) (HPC)): 100 % of control

CC1(C)CCCC(C)(C2CCC3(C)C2C(O)CC2C4(C)CCC(O)C(C)(C)C4CCC23C)O1 (stereo not drawn) was tested. Which T/C (dose: 8.0 mg/kg/injection, schedule: Q01DX009 (ip), vehicle: Klucel (hydroxypropylcellulose) (HPC)) did it give?
The T/C was 101 % of control.

What about the T/C (dose: 16.0 mg/kg/injection, schedule: Q01DX009 (ip), vehicle: Klucel (hydroxypropylcellulose) (HPC)) of the same compound?
The T/C was 96 % of control.

And the T/C (dose: 32.0 mg/kg/injection, schedule: Q01DX009 (ip), vehicle: Klucel (hydroxypropylcellulose) (HPC))?
Its T/C is 99 % of control.

What about the T/C (dose: 37.5 mg/kg/injection, schedule: Q01DX009 (ip), vehicle: Klucel (hydroxypropylcellulose) (HPC)) of the same compound?
The T/C was 103 % of control.

And the T/C (dose: 64.0 mg/kg/injection, schedule: Q01DX009 (ip), vehicle: Klucel (hydroxypropylcellulose) (HPC))?
Its T/C is 97 % of control.

What about the T/C (dose: 75.0 mg/kg/injection, schedule: Q01DX009 (ip), vehicle: Klucel (hydroxypropylcellulose) (HPC)) of the same compound?
Its T/C is 94 % of control.

And the T/C (dose: 150.0 mg/kg/injection, schedule: Q01DX009 (ip), vehicle: Klucel (hydroxypropylcellulose) (HPC))?
Its T/C is 100 % of control.

And the T/C (dose: 300.0 mg/kg/injection, schedule: Q01DX009 (ip), vehicle: Klucel (hydroxypropylcellulose) (HPC))?
The T/C was 91 % of control.

How did the T/C (dose: 100.0 mg/kg/injection, schedule: Q04DX002 (ip), vehicle: saline with Tween-80) turn out when CN(C)C1(c2ccc3ccccc3c2)CS(=O)(=O)C1 was run?
Its T/C is 100 % of control.

And the T/C (dose: 200.0 mg/kg/injection, schedule: Q04DX002 (ip), vehicle: saline with Tween-80)?
Its T/C is 98 % of control.

And the T/C (dose: 400.0 mg/kg/injection, schedule: Q04DX002 (ip), vehicle: saline with Tween-80)?
The T/C was 92 % of control.

COc1cccc2c1C(=O)c1c(O)c3c(c(O)c1C2=O)C[C@@](O)(/C(C)=N/N1CCCCC1)C[C@@H]3OC1CC(N)C(O)C(C)O1 (stereo partly drawn) was tested. Which T/C (dose: 1.25 mg/kg/injection, schedule: Q01DX009 (ip), vehicle: saline) did it give?
The T/C was 156 % of control.

What about the T/C (dose: 2.5 mg/kg/injection, schedule: Q01DX009 (ip), vehicle: saline) of the same compound?
The T/C was 160 % of control.

What about the T/C (dose: 5.0 mg/kg/injection, schedule: Q01DX009 (ip), vehicle: saline) of the same compound?
The T/C was 101 % of control.

Which results are given for NS(=O)(=O)c1c[nH]c(=O)[nH]c1=O?
T/C [1]: 105 % of control; T/C [2]: 93 % of control; T/C [3]: 97 % of control; T/C (dose: 400.0 mg/kg/injection, schedule: Q01DX009 (ip), vehicle: Klucel (hydroxypropylcellulose) (HPC)): 91 % of control

Which T/C (dose: 6.25 mg/kg/injection, schedule: Q01DX001 (ip), vehicle: saline) does the source give for CC[N+]1(CC)c2ccccc2CC1C (stereo not drawn) here?
The T/C was 97 % of control.

What about the T/C (dose: 12.5 mg/kg/injection, schedule: Q01DX001 (ip), vehicle: saline) of the same compound?
The T/C was 101 % of control.

And the T/C (dose: 25.0 mg/kg/injection, schedule: Q01DX001 (ip), vehicle: saline)?
Its T/C is 104 % of control.

CC1(CN2CCCC2)CCC(NC(=O)C(c2ccccc2)c2ccccc2)C(C)(C)O1 (stereo not drawn) was tested. Which T/C (dose: 25.0 mg/kg/injection, schedule: Q01DX001 (ip), vehicle: saline with Tween-80) did it give?
The T/C was 107 % of control.

What about the T/C (dose: 50.0 mg/kg/injection, schedule: Q01DX001 (ip), vehicle: saline with Tween-80) of the same compound?
The T/C was 104 % of control.

Which T/C (dose: 2.0 mg/kg/injection, schedule: Q01DX005 (ip), vehicle: Klucel + Tween-80) does the source give for COc1c2ccc(-c3ccccc3)oc-2cc(=O)c1C here?
Its T/C is 100 % of control.

What about the T/C (dose: 4.0 mg/kg/injection, schedule: Q01DX005 (ip), vehicle: Klucel + Tween-80) of the same compound?
Its T/C is 100 % of control.

What about the T/C (dose: 8.0 mg/kg/injection, schedule: Q01DX005 (ip), vehicle: Klucel + Tween-80) of the same compound?
Its T/C is 109 % of control.

What about the T/C (dose: 16.0 mg/kg/injection, schedule: Q01DX005 (ip), vehicle: Klucel + Tween-80) of the same compound?
Its T/C is 92 % of control.

How did the T/C [4] turn out when CCOC(=O)c1cc2c(ccc3ccccc32)[nH]1 was run?
The T/C was 97 % of control.

And the T/C [5]?
The T/C was 89 % of control.

Which results are given for Cc1ccc(S(=O)OC2CC(C)CCC2C(C)C)cc1 (stereo not drawn)?
T/C [1]: 100 % of control; T/C [2]: 101 % of control; T/C [3]: 100 % of control

Which results are given for [N-]=[N+]=NCC(O)COc1c2ccccc2nc2ccccc12 (stereo not drawn)?
T/C (dose: 15.0 mg/kg/injection, schedule: Q01DX005 (ip), vehicle: saline with Tween-80): 95 % of control; T/C (dose: 30.0 mg/kg/injection, schedule: Q01DX005 (ip), vehicle: saline with Tween-80): 99 % of control; T/C [4]: 112 % of control

Which T/C (dose: 7.5 mg/kg/injection, schedule: Q01DX005 (ip), vehicle: Klucel (hydroxypropylcellulose) (HPC)) does the source give for CC1=C(C(=O)Nc2cc(O)ccc2O)C(c2cccc([N+](=O)[O-])c2)C(C(=O)Nc2cc(O)ccc2O)=C(C)N1 here?
Its T/C is 98 % of control.

What about the T/C (dose: 15.0 mg/kg/injection, schedule: Q01DX005 (ip), vehicle: Klucel (hydroxypropylcellulose) (HPC)) of the same compound?
Its T/C is 93 % of control.

What about the T/C (dose: 30.0 mg/kg/injection, schedule: Q01DX005 (ip), vehicle: Klucel (hydroxypropylcellulose) (HPC)) of the same compound?
The T/C was 100 % of control.

Which results are given for CCN1CCn2c(c(COC(=O)NC(C)C)c(COC(=O)NC(C)C)c2-c2ccc(Cl)c(Cl)c2)C1?
T/C (dose: 6.25 mg/kg/injection, schedule: Q01DX009 (ip), vehicle: distilled water + Tween-80): 116 % of control; T/C (dose: 12.5 mg/kg/injection, schedule: Q01DX009 (ip), vehicle: distilled water + Tween-80): 122 % of control; T/C (dose: 18.8 mg/kg/injection, schedule: Q01DX009 (ip), vehicle: distilled water + Tween-80): 97 % of control; T/C (dose: 25.0 mg/kg/injection, schedule: Q01DX009 (ip), vehicle: distilled water + Tween-80): 116 % of control; T/C (dose: 37.5 mg/kg/injection, schedule: Q01DX009 (ip), vehicle: distilled water + Tween-80): 114 % of control

How did the T/C (dose: 2.5 mg/kg/injection, schedule: Q01DX009 (ip), vehicle: saline with Tween-80) turn out when CSc1cc(=O)n2c3ccccc3c3ccnc1c32 was run?
The T/C was 100 % of control and 120 % of control.

And the T/C (dose: 5.0 mg/kg/injection, schedule: Q01DX009 (ip), vehicle: saline with Tween-80)?
Its T/C is 116 % of control.

And the T/C (dose: 10.0 mg/kg/injection, schedule: Q01DX009 (ip), vehicle: saline with Tween-80)?
Its T/C is 156 % of control.

What does the source list for C[Si](C)(C)c1cnc(N)[nH]c1=O?
T/C [6]: 115 % of control; T/C [7]: 120 % of control; T/C [8]: 120 % of control

Which results are given for CNC1C(O)C2Oc3c(cc(O)c4c3C(=O)c3cc5c(c(O)c3C4=O)C(OC3OC(C)C(OC)C(C)(OC)C3OC)CC(C)(O)C5C(=O)OC)C(C)(O2)C1O (stereo not drawn)?
T/C (dose: 3.12 mg/kg/injection, schedule: Q04DX003 (ip), vehicle: other): 99 % of control; T/C (dose: 6.25 mg/kg/injection, schedule: Q04DX003 (ip), vehicle: other): 115 % of control; T/C (dose: 12.5 mg/kg/injection, schedule: Q04DX003 (ip), vehicle: other): 150 % of control; T/C (dose: 25.0 mg/kg/injection, schedule: Q04DX003 (ip), vehicle: other): 160 % of control

How did the T/C (dose: 400.0 mg/kg/injection, schedule: Q01DX001 (ip), vehicle: saline with Tween-80) turn out when O=c1c(Cl)c2cc3c(cc2c2ccccc12)nc1ccccc1n3-c1ccccc1 was run?
The T/C was 89 % of control.

Which results are given for COc1cc2cc3c(c(O)c2c(OC)c1OC)C(=O)CC(C)(C)C3?
T/C (dose: 25.0 mg/kg/injection, schedule: Q01DX005 (ip), vehicle: saline with Tween-80): 101 % of control; T/C (dose: 50.0 mg/kg/injection, schedule: Q01DX005 (ip), vehicle: saline with Tween-80): 91 % of control

O=C(OCCCCCl)c1ccccc1 was tested. Which T/C (dose: 50.0 mg/kg/injection, schedule: Q01DX009 (ip), vehicle: saline + Tween-80 + alcohol) did it give?
The T/C was 104 % of control.

What about the T/C (dose: 100.0 mg/kg/injection, schedule: Q01DX009 (ip), vehicle: saline + Tween-80 + alcohol) of the same compound?
Its T/C is 104 % of control.

And the T/C (dose: 200.0 mg/kg/injection, schedule: Q01DX009 (ip), vehicle: saline + Tween-80 + alcohol)?
Its T/C is 110 % of control.

And the T/C (dose: 400.0 mg/kg/injection, schedule: Q01DX009 (ip), vehicle: saline + Tween-80 + alcohol)?
Its T/C is 112 % of control.

How did the T/C (dose: 12.5 mg/kg/injection, schedule: Q01DX009 (ip), vehicle: saline with Tween-80) turn out when COC1/C=C/OC2(C)Oc3c(C)c(O)c4c(O)c(c(/C=N/N5CC(C)N(Cc6ccccc6)C(C)C5)c(O)c4c3C2=O)NC(=O)C(C)=C/C=C/C(C)C(O)C(C)C(O)C(C)C(OC(C)=O)C1C (stereo not drawn) was run?
The T/C was 113 % of control.

What about the T/C [6] of the same compound?
The T/C was 109 % of control.

And the T/C [7]?
The T/C was 118 % of control and 124 % of control.

And the T/C [8]?
The T/C was 114 % of control.

For CC(=O)Oc1cc2c(cc1OC(C)=O)OCC(c1ccccc1)C2 (stereo not drawn), which T/C [4] is on record?
The T/C was 98 % of control.

What about the T/C [5] of the same compound?
The T/C was 98 % of control.

What about the T/C (dose: 240.0 mg/kg/injection, schedule: Q01DX005 (ip), vehicle: saline with Tween-80) of the same compound?
Its T/C is 97 % of control.

For CCCCCCC[CH2][Sn]([CH2]CCCCCCC)([CH2]CCCCCCC)[O]C(C)=O, which T/C (dose: 50.0 mg/kg/injection, schedule: Q01DX009 (ip), vehicle: saline) is on record?
The T/C was 97 % of control.

What about the T/C (dose: 100.0 mg/kg/injection, schedule: Q01DX009 (ip), vehicle: saline) of the same compound?
The T/C was 100 % of control.

And the T/C (dose: 200.0 mg/kg/injection, schedule: Q01DX009 (ip), vehicle: saline)?
Its T/C is 94 % of control.
